Measured values taken from article PMC10734772 (Turkish Journal of Chemistry, 2021).

Assays:
Format in all cases: cell-based
K562 = experiment: MTT assay, K562 cells; details: Homo sapiens, 24 h, MTT, read-out: Viability rate
Nalm-6 = experiment: MTT assay, Nalm-6 cells; details: Homo sapiens, 24 h, MTT, read-out: Viability rate
Procedure: After incubation (on the third day), to precipitate leukemia cells, the cell plate was centrifuged at 1500 rpm for 5 min. […] The 50 μl of supernatant was discarded from each well and 100 μl of DMSO was added to dissolve the formazan. Plates were shaken for 45 min to dissolve the dye. Then the optical density of each well was measured by using Thermo VarioSkan Flush Multimode Reader Quantum ST5-1100 at 570 nm wavelength.
The IC50 values were calculated by using GraphPad Prism. All the data presented as the mean of 6 replicates. […] Statistical analysis was performed using dose-response inhibition, log(inhibitor) vs response-variable slope, least squares (ordinary) fit.

Molt-4 = experiment: MTT assay, Molt-4 cells; details: Homo sapiens, MOLT-4, 24 h, read-out: Viability rate
Procedure: (§1) K562, Jurkat, Molt-4, and Nalm-6 cell lines were cultured in RPMI-1640 medium (ECM2001, Euroclone), Reh cell line was cultured in DMEM medium (LM-D1111-Biosera) Hek293T cell line was cultured in IMDM medium (AL070A - HiMedia) supplemented with 10% heat-inactivated fetal bovine serum (F7524-Merck & Co., USA,) penicillin and streptomycin (P4333-Sigma Aldrich). K562, Jurkat and Molt-4 cell lines were seeded as 4x10^5/ml, Reh and Nalm-6 cell lines were seeded 5x10^5/ml, Hek293T cell line was seed as 2x10^5/ml. All cells were incubated at 5% CO2 and 37 °C. All cell lines were kindly provided by Dr. M. Sayitoglu and Dr. Ö. Hatirnaz-Ng from Acibadem University.
(§2) MTT assay is a 3-day test. On the first day, cell count was performed in Bio Rad TC-20 device with the help of trypan blue, each cell line was prepared by diluting to the specified concentrations and seeded in a 96-well plate as 100μL to each well and incubated for 1 day.
(§3) Each compound was solved in DMSO, their stock solutions (33.3, 10, 5, 1 mM, and 300 μM) were prepared by diluting with the same solvent and they were stored under −20°C when they were not used.
(§4) On the second day, stock solutions were subsequently diluted to various concentrations (0.3–200 μM) with related medium prior to experiments. Specified concentrations of the compounds were seeded in a 96-well plate as 100μL to each well and incubated for 24 h.
(§5) After incubation (on the third day), to precipitate leukemia cells, the cell plate was centrifuged at 1500 rpm for 5 min. Then, 100 μL of supernatant was removed from each well carefully and 10 μl of MTT solution (5 mg/mL) was added to each well and incubated at 37 °C for 4 h. The 50 μl of supernatant was discarded from each well and 100 μl of DMSO was added to dissolve the formazan. Plates were shaken for 45 min to dissolve the dye. Then the optical density of each well was measured by using Thermo VarioSkan Flush Multimode Reader Quantum ST5-1100 at 570 nm wavelength.
(§6) Subsequently, viability rate of the cells at each concentration, as percentage, was determined by following formula (1):
(§7) Viability rate (%)=100-[(OD(control)-OD(sample))/OD(control)×100].OD=Optical Density
(§8) The IC50 values were calculated by using GraphPad Prism. All the data presented as the mean of 6 replicates. Results were analyzed and illustrated with Graph Pad Prism (version 5; GraphPad Software, San Diego, CA, USA). Statistical analysis was performed using dose-response inhibition, log(inhibitor) vs response-variable slope, least squares (ordinary) fit.
(§9) To evaluate in-vitro anti-cancer activity of the newly synthesized compounds, they were tested by using the MTT assay in the BCR-ABL positive leukemic cell line (K562), BCR-ABL negative leukemic cell lines (Nalm-6, Molt-4, Reh and Jurkat), and non-leukemic human embryonic kidney tissue (Hek293T) cell line. […] The viability rate of each concentration was calculated by the formula stated in material and methods, the viability rate results for each cell were presented in Table S2 and Figure S44.

Reh = experiment: MTT assay, Reh cells; details: Homo sapiens, 24 h, read-out: Viability rate
Procedure: as §1, §2, §3, §4, §5, §6, §7, §8, §9

Jurkat = experiment: MTT assay, Jurkat cells; details: Homo sapiens, 24 h, read-out: Viability rate
Procedure: as §1, §2, §3, §4, §5, §6, §7, §8, §9

[1] = MTT assay, Hek293T non-leukemic control cells; details: human, read-out: Viability rate
Procedure: as §1, §2, §3, §4, §5, §6, §7, §8, §9

Cc1ccc(NC(=O)c2ccc(CN3CCN(C)CC3)cc2)cc1Nc1nccc(-c2cccnc2)n1 [imatinib, reference compound]
viability at 0.3 µM (K562; K562, 0.3 μM): 98 ± 0.03%
viability at 0.5 µM (K562; K562, 0.5 μM): 97.4 ± 0.06%
viability at 1 µM (K562; K562, 1 μM): 95.4 ± 0.07%
viability at 3 µM (K562; K562, 3 μM): 95.3 ± 0.05%
viability at 5 µM (K562; K562, 5 μM): 95.4 ± 0.09%
viability at 10 µM (K562; K562, 10 μM): 94.8 ± 0.09%
viability at 15 µM (K562; K562, 15 μM): 88.5 ± 0.1%
viability at 20 µM (K562; K562, 20 μM): 87 ± 0.04%
viability at 30 µM (K562; K562, 30 μM): 72.8 ± 0.06%
viability at 50 µM (K562; K562, 50 μM): 60.8 ± 0.1%
viability at 70 µM (K562; K562, 70 μM): 60 ± 0.07%
viability at 100 µM (K562; K562, 100 μM): 51.3 ± 0.05%
viability at 150 µM (K562; K562, 150 μM): 35.1 ± 0.01%
viability at 200 µM (K562; K562, 200 μM): 29.7%
viability at 0.3 µM (Nalm-6; Nalm-6, 0.3 μM): 91 ± 0.08%
viability at 0.5 µM (Nalm-6; Nalm-6, 0.5 μM): 90.7 ± 0.06%
viability at 1 µM (Nalm-6; Nalm-6, 1 μM): 90.1 ± 0.09%
viability at 3 µM (Nalm-6; Nalm-6, 3 μM): 84.7 ± 0.09%
viability at 5 µM (Nalm-6; Nalm-6, 5 μM): 84.5 ± 0.05%
viability at 10 µM (Nalm-6; Nalm-6, 10 μM): 72.9 ± 0.03%
viability at 15 µM (Nalm-6; Nalm-6, 15 μM): 57.1 ± 0.02%
viability at 20 µM (Nalm-6; Nalm-6, 20 μM): 52.7 ± 0.01%
viability at 30 µM (Nalm-6; Nalm-6, 30 μM): 50.7 ± 0.03%
viability at 50 µM (Nalm-6; Nalm-6, 50 μM): 39.7 ± 0.01%
viability at 70 µM (Nalm-6; Nalm-6, 70 μM): 32.5 ± 0.05%
viability at 100 µM (Nalm-6; Nalm-6, 100 μM): 32.2 ± 0.02%
viability at 150 µM (Nalm-6; Nalm-6, 150 μM): 32.5 ± 0.01%
viability at 200 µM (Nalm-6; Nalm-6, 200 μM): 29%
viability at 0.3 µM (Molt-4; Molt-4, 0.3 μM): 75.6 ± 0.18%
viability at 0.5 µM (Molt-4; Molt-4, 0.5 μM): 74.9 ± 0.18%
viability at 1 µM (Molt-4; Molt-4, 1 μM): 75.1 ± 0.19%
viability at 3 µM (Molt-4; Molt-4, 3 μM): 73.8 ± 0.17%
viability at 5 µM (Molt-4; Molt-4, 5 μM): 72.7 ± 0.25%
viability at 10 µM (Molt-4; Molt-4, 10 μM): 70.7 ± 0.21%
viability at 15 µM (Molt-4; Molt-4, 15 μM): 70.2 ± 0.1%
viability at 20 µM (Molt-4; Molt-4, 20 μM): 63.4 ± 0.1%
viability at 30 µM (Molt-4; Molt-4, 30 μM): 63.3 ± 0.06%
viability at 50 µM (Molt-4; Molt-4, 50 μM): 55.5 ± 0.05%
viability at 70 µM (Molt-4; Molt-4, 70 μM): 52.1 ± 0.1%
viability at 100 µM (Molt-4; Molt-4, 100 μM): 41.2 ± 0.06%
viability at 150 µM (Molt-4; Molt-4, 150 μM): 29.8 ± 0.04%
viability at 200 µM (Molt-4; Molt-4, 200 μM): 20.3 ± 0.02%
viability at 0.3 µM (Reh; 0.3 μM): 97.6 ± 0.03%
viability at 0.5 µM (Reh; 0.5 μM): 96.8 ± 0.03%
viability at 1 µM (Reh; 1 μM): 96.4 ± 0.01%
viability at 3 µM (Reh; 3 μM): 95.5 ± 0.02%
viability at 5 µM (Reh; 5 μM): 94.5 ± 0.03%
viability at 10 µM (Reh; 10 μM): 91.3 ± 0.05%
viability at 15 µM (Reh; 15 μM): 82.4 ± 0.02%
viability at 20 µM (Reh; 20 μM): 78.6 ± 0.02%
viability at 30 µM (Reh; 30 μM): 70.9 ± 0.03%
viability at 50 µM (Reh; 50 μM): 63.5 ± 0.04%
viability at 70 µM (Reh; 70 μM): 62.9 ± 0.03%
viability at 100 µM (Reh; 100 μM): 61.2 ± 0.01%
viability at 150 µM (Reh; 150 μM): 60.3 ± 0.03%
viability at 200 µM (Reh; 200 μM): 57 ± 0.02%
viability at 0.3 µM (Jurkat; 0.3 μM): 68.4 ± 0.12%
viability at 0.5 µM (Jurkat; 0.5 μM): 63.9 ± 0.03%
viability at 1 µM (Jurkat; 1 μM): 61.5 ± 0.07%
viability at 3 µM (Jurkat; 3 μM): 61.3 ± 0.05%
viability at 5 µM (Jurkat; 5 μM): 60.7 ± 0.08%
viability at 10 µM (Jurkat; 10 μM): 60.6 ± 0.14%
viability at 15 µM (Jurkat; 15 μM): 57.9 ± 0.05%
viability at 20 µM (Jurkat; 20 μM): 46.8 ± 0.05%
viability at 30 µM (Jurkat; 30 μM): 34.5 ± 0.04%
viability at 50 µM (Jurkat; 50 μM): 26.2 ± 0.05%
viability at 70 µM (Jurkat; 70 μM): 17.8 ± 0.02%
viability at 100 µM (Jurkat; 100 μM): 17.5 ± 0.01%
viability at 150 µM (Jurkat; 150 μM): 17.3 ± 0.01%
viability at 200 µM (Jurkat; 200 μM): 16.6%
viability at 24 h, 0.3 µM ([1]; Hek293T cells (non-leukemic control cell line), 0.3 μM): 83.4 ± 0.02%
viability at 24 h, 0.5 µM ([1]; Hek293T cells (non-leukemic control cell line), 0.5 μM): 78.6 ± 0.04%
viability at 24 h, 3 µM ([1]; Hek293T cells (non-leukemic control cell line), 3 μM): 73.1 ± 0.03%
viability at 24 h, 5 µM ([1]; Hek293T cells (non-leukemic control cell line), 5 μM): 71.5 ± 0.02%
viability at 24 h, 10 µM ([1]; Hek293T cells (non-leukemic control cell line), 10 μM): 67.9 ± 0.01%
viability at 24 h, 15 µM ([1]; Hek293T cells (non-leukemic control cell line), 15 μM): 59.6 ± 0.01%
viability at 24 h, 20 µM ([1]; Hek293T cells (non-leukemic control cell line), 20 μM): 55.7 ± 0.03%
viability at 24 h, 30 µM ([1]; Hek293T cells (non-leukemic control cell line), 30 μM): 53.5 ± 0.01%
viability at 24 h, 50 µM ([1]; Hek293T cells (non-leukemic control cell line), 50 μM): 48.5 ± 0.05%
viability at 24 h, 70 µM ([1]; Hek293T cells (non-leukemic control cell line), 70 μM): 42.9 ± 0.03%
viability at 24 h, 100 µM ([1]; Hek293T cells (non-leukemic control cell line), 100 μM): 42.7 ± 0.03%
viability at 24 h, 150 µM ([1]; Hek293T cells (non-leukemic control cell line), 150 μM): 42.5 ± 0.02%
viability at 24 h, 200 µM ([1]; Hek293T cells (non-leukemic control cell line), 200 μM): 42.1 ± 0.01%
viability at 24 h, 1 µM ([1]; Hek293T cells, 1 μM): 77.7 ± 0.03%
